Measured values reported in the supplement of paper PMC10307832.

Assays:
Assay in all cases: relative viability (nuclei count vs DMSO), 5 days (fraction); higher = more cells survive
NCI-H1563 = system: NCI-H1563
In short: (§1)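 Cells from lung cancer lines were seeded into 1536-well plates and, one day later, dosed by pin tool. Treatments were either a single drug or a fixed dose of an anchor drug with five library-drug doses (not always all listed) in √10 steps. After 5 days, nuclei were stained in a one-step fixation (final 0.05% Triton X-100, 1% formaldehyde, 1 ug/ml Hoechst) and counted on 4× images, and relative viability is the treated-to-vehicle nuclei ratio, as the median of duplicate plates.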

NCI-H2126 = system: NCI-H2126
In short: as §1

HCC-78 = system: HCC-78
In short: as §1

LXF-289 = system: LXF-289
In short: as §1

HCC-827 = system: HCC-827
In short: as §1

ChaGo-K-1 = system: ChaGo-K-1
In short: as §1

NCI-H23 = system: NCI-H23
In short: as §1

NCI-H322M = system: NCI-H322M
In short: as §1

NCI-H2085 = system: NCI-H2085
In short: as §1

LCLC-103H = system: LCLC-103H
In short: as §1

NCI-H3122 = system: NCI-H3122
In short: as §1

RERF-LC-KJ = system: RERF-LC-KJ
In short: as §1

EMC-BAC-2 = system: EMC-BAC-2
In short: as §1

LOU-NH91 = system: LOU-NH91
In short: as §1

NCI-H1666 = system: NCI-H1666
In short: as §1

NCI-H1975 = system: NCI-H1975
In short: as §1

EPLC-272H = system: EPLC-272H
In short: as §1

LU99A = system: LU99A
In short: as §1

LK-2 = system: LK-2
In short: as §1

SK-LU-1 = system: SK-LU-1
In short: as §1

SW 1573 = system: SW 1573
In short: as §1

NCI-H2405 = system: NCI-H2405
In short: as §1

CC1(C)CCC(c2ccc(Cl)cc2)=C(CN2CCN(c3ccc(C(=O)NS(=O)(=O)c4ccc(N[C@H](CCN5CCOCC5)CSc5ccccc5)c(S(=O)(=O)C(F)(F)F)c4)cc3)CC2)C1 [Navitoclax] + CS(=O)(=O)N1CCN(Cc2cc3nc(-c4cccc5[nH]ncc45)nc(N4CCOCC4)c3s2)CC1 [Pictilisib] (partner 1 µM)
relative viability (NCI-H1563; first compound 0.005 µM): 0.603 | relative viability (NCI-H1563; first compound 0.01581 µM): 0.667 | relative viability (NCI-H1563; first compound 0.05 µM): 0.577 | relative viability (NCI-H1563; first compound 0.1581 µM): 0.583 | relative viability (NCI-H1563; first compound 0.5 µM): 0.693 | relative viability (NCI-H2126; first compound 0.005 µM): 0.529 | relative viability (NCI-H2126; first compound 0.01581 µM): 0.507 | relative viability (NCI-H2126; first compound 0.05 µM): 0.493 | relative viability (NCI-H2126; first compound 0.1581 µM): 0.49 | relative viability (NCI-H2126; first compound 0.5 µM): 0.451 | relative viability (HCC-78; first compound 0.005 µM): 0.184 | relative viability (HCC-78; first compound 0.01581 µM): 0.261 | relative viability (HCC-78; first compound 0.1581 µM): 0.232 | relative viability (HCC-78; first compound 0.5 µM): 0.205 | relative viability (LXF-289; first compound 0.005 µM): 0.821 | relative viability (LXF-289; first compound 0.01581 µM): 0.872 | relative viability (LXF-289; first compound 0.05 µM): 0.737 | relative viability (LXF-289; first compound 0.1581 µM): 0.799 | relative viability (LXF-289; first compound 0.5 µM): 0.768 | relative viability (HCC-827; first compound 0.005 µM): 1.12 | relative viability (HCC-827; first compound 0.01581 µM): 1 | relative viability (HCC-827; first compound 0.05 µM): 0.933 | relative viability (HCC-827; first compound 0.1581 µM): 0.78 | relative viability (HCC-827; first compound 0.5 µM): 0.975 | relative viability (ChaGo-K-1; first compound 0.005 µM): 0.645 | relative viability (ChaGo-K-1; first compound 0.01581 µM): 0.799 | relative viability (ChaGo-K-1; first compound 0.05 µM): 0.648 | relative viability (ChaGo-K-1; first compound 0.1581 µM): 0.641 | relative viability (ChaGo-K-1; first compound 0.5 µM): 0.667 | relative viability (NCI-H23; first compound 0.005 µM): 0.479 | relative viability (NCI-H23; first compound 0.01581 µM): 0.498 | relative viability (NCI-H23; first compound 0.05 µM): 0.483 | relative viability (NCI-H23; first compound 0.1581 µM): 0.433 | relative viability (NCI-H23; first compound 0.5 µM): 0.504 | relative viability (NCI-H322M; first compound 0.005 µM): 0.485 | relative viability (NCI-H322M; first compound 0.01581 µM): 0.526 | relative viability (NCI-H322M; first compound 0.05 µM): 0.565 | relative viability (NCI-H322M; first compound 0.1581 µM): 0.516 | relative viability (NCI-H322M; first compound 0.5 µM): 0.562 | relative viability (NCI-H2085; first compound 0.005 µM): 0.449 | relative viability (NCI-H2085; first compound 0.01581 µM): 0.49 | relative viability (NCI-H2085; first compound 0.05 µM): 0.475 | relative viability (NCI-H2085; first compound 0.1581 µM): 0.507 | relative viability (NCI-H2085; first compound 0.5 µM): 0.596 | relative viability (LCLC-103H; first compound 0.005 µM): 0.588 | relative viability (LCLC-103H; first compound 0.01581 µM): 0.611 | relative viability (LCLC-103H; first compound 0.05 µM): 0.664 | relative viability (LCLC-103H; first compound 0.1581 µM): 0.611 | relative viability (LCLC-103H; first compound 0.5 µM): 0.799 | relative viability (NCI-H3122; first compound 0.005 µM): 0.592 | relative viability (NCI-H3122; first compound 0.01581 µM): 0.585 | relative viability (NCI-H3122; first compound 0.05 µM): 0.537 | relative viability (NCI-H3122; first compound 0.1581 µM): 0.601 | relative viability (NCI-H3122; first compound 0.5 µM): 0.55 | relative viability (RERF-LC-KJ; first compound 0.005 µM): 0.446 | relative viability (RERF-LC-KJ; first compound 0.01581 µM): 0.55 | relative viability (RERF-LC-KJ; first compound 0.05 µM): 0.589 | relative viability (RERF-LC-KJ; first compound 0.1581 µM): 0.476 | relative viability (RERF-LC-KJ; first compound 0.5 µM): 0.568 | relative viability (EMC-BAC-2; first compound 0.005 µM): 0.506 | relative viability (EMC-BAC-2; first compound 0.01581 µM): 0.646 | relative viability (EMC-BAC-2; first compound 0.05 µM): 0.565 | relative viability (EMC-BAC-2; first compound 0.1581 µM): 0.548 | relative viability (EMC-BAC-2; first compound 0.5 µM): 0.6 | relative viability (LOU-NH91; first compound 0.005 µM): 0.51 | relative viability (LOU-NH91; first compound 0.01581 µM): 0.513 | relative viability (LOU-NH91; first compound 0.05 µM): 0.556 | relative viability (LOU-NH91; first compound 0.1581 µM): 0.496 | relative viability (LOU-NH91; first compound 0.5 µM): 0.393 | relative viability (NCI-H1666; first compound 0.005 µM): 0.562 | relative viability (NCI-H1666; first compound 0.01581 µM): 0.609 | relative viability (NCI-H1666; first compound 0.05 µM): 0.503 | relative viability (NCI-H1666; first compound 0.1581 µM): 0.394 | relative viability (NCI-H1666; first compound 0.5 µM): 0.475 | relative viability (NCI-H1975; first compound 0.005 µM): 0.295 | relative viability (NCI-H1975; first compound 0.01581 µM): 0.32 | relative viability (NCI-H1975; first compound 0.05 µM): 0.304 | relative viability (NCI-H1975; first compound 0.1581 µM): 0.287 | relative viability (NCI-H1975; first compound 0.5 µM): 0.235 | relative viability (EPLC-272H; first compound 0.005 µM): 0.321 | relative viability (EPLC-272H; first compound 0.1581 µM): 0.325 | relative viability (EPLC-272H; first compound 0.5 µM): 0.306 | relative viability (LU99A; first compound 0.005 µM): 0.361 | relative viability (LU99A; first compound 0.01581 µM): 0.35 | relative viability (LU99A; first compound 0.05 µM): 0.336 | relative viability (LU99A; first compound 0.1581 µM): 0.34 | relative viability (LU99A; first compound 0.5 µM): 0.325 | relative viability (LK-2; first compound 0.005 µM): 0.612 | relative viability (LK-2; first compound 0.01581 µM): 0.559 | relative viability (LK-2; first compound 0.05 µM): 0.536 | relative viability (LK-2; first compound 0.1581 µM): 0.657 | relative viability (LK-2; first compound 0.5 µM): 0.511 | relative viability (SK-LU-1; first compound 0.005 µM): 0.557 | relative viability (SK-LU-1; first compound 0.01581 µM): 0.725 | relative viability (SK-LU-1; first compound 0.05 µM): 0.499 | relative viability (SK-LU-1; first compound 0.1581 µM): 0.522 | relative viability (SK-LU-1; first compound 0.5 µM): 0.483 | relative viability (SW 1573; first compound 0.005 µM): 0.466 | relative viability (SW 1573; first compound 0.01581 µM): 0.54 | relative viability (SW 1573; first compound 0.05 µM): 0.464 | relative viability (SW 1573; first compound 0.1581 µM): 0.389 | relative viability (SW 1573; first compound 0.5 µM): 0.503 | relative viability (NCI-H2405; first compound 0.005 µM): 0.409 | relative viability (NCI-H2405; first compound 0.01581 µM): 0.754 | relative viability (NCI-H2405; first compound 0.05 µM): 0.434 | relative viability (NCI-H2405; first compound 0.1581 µM): 0.451 | relative viability (NCI-H2405; first compound 0.5 µM): 0.41
